The supplement of paper PMC11061612

Tests used:
Trametinib = compound: CC(=O)Nc1cccc(-n2c(=O)n(C3CC3)c(=O)c3c(Nc4ccc(I)cc4F)n(C)c(=O)c(C)c32)c1 [Trametinib]; details: max 1 µM
Procedure, shortened: (§1)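 After 24 hours at 37°C and 5% CO2 in 1536-well plates holding 7.5 μl of DMEM/F12 or RPMI with 10% FBS, cancer cell lines were dosed for 72 hours, with final DMSO typically 0.2%. Viability came from CellTiter-Glo 2.0 luminescence, scaled between the means of blank wells and DMSO wells. A non-linear mixed effects model fitted a two-parameter logistic curve to each dose response to give the single-agent IC50.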

MK-2206 = compound: NC1(c2ccc(-c3nc4ccn5c(=O)[nH]nc5c4cc3-c3ccccc3)cc2)CCC1 [MK-2206]; details: max 10 µM
Procedure, shortened: as §1

AZD7648 = compound: Cc1cc2ncnn2cc1Nc1ncc2c(n1)n(C1CCOCC1)c(=O)n2C [AZD7648]; details: max 10 µM
Procedure, shortened: as §1

[1] = compound: O=C(Nc1ccc2[nH]nc(-c3ccncc3)c2c1)[C@@H]1CCN(CC(=O)N2CCN(c3ccc(-c4ncccn4)cc3)CC2)C1; details: max 5 µM
Procedure, shortened: as §1

AZD5363 = compound: C1CN(CCC1(C(=O)N[C@@H](CCO)C2=CC=C(C=C2)Cl)N)C3=NC=NC4=C3C=CN4 [AZD5363]; details: max 10 µM
Procedure, shortened: as §1

AZD6738 = compound: C[C@@H]1COCCN1C2=NC(=NC(=C2)C3(CC3)[S@](=N)(=O)C)C4=C5C=CNC5=NC=C4 [AZD6738]; details: max 10 µM
Procedure, shortened: as §1

Crizotinib = compound: C[C@@H](Oc1cc(-c2cnn(C3CCNCC3)c2)cnc1N)c1c(Cl)ccc(F)c1Cl [Crizotinib]; details: max 10 µM
Procedure, shortened: as §1

AZD5991 = compound: Cc1c2c(nn1C)CSCc1cc(n(C)n1)CSc1cc(c3ccccc3c1)OCCCc1c(C(=O)O)n(C)c3c-2c(Cl)ccc13 [AZD5991]; details: max 1 µM
Procedure, shortened: as §1

Taselisib = compound: Cc1nc(-c2cn3c(n2)-c2ccc(-c4cnn(C(C)(C)C(N)=O)c4)cc2OCC3)n(C(C)C)n1 [Taselisib]; details: max 10 µM
Procedure, shortened: as §1

Lapatinib = compound: CS(=O)(=O)CCNCc1ccc(-c2ccc3ncnc(Nc4ccc(OCc5cccc(F)c5)c(Cl)c4)c3c2)o1 [Lapatinib]; details: max 10 µM
Procedure, shortened: as §1

SG3199 = compound: CC1=CN2[C@@H](C1)C=NC3=CC(=C(C=C3C2=O)OC)OCCCCCOC4=C(C=C5C(=C4)N=C[C@@H]6CC(=CN6C5=O)C)OC [SG3199]; details: max 0.001 µM
Procedure, shortened: as §1

5-Fluorouracil = compound: O=c1[nH]cc(F)c(=O)[nH]1 [5-Fluorouracil]; details: max 20 µM
Procedure, shortened: as §1

AZD0156 = compound: CN(C)CCCOc1ccc(-c2ccc3ncc4c(c3c2)n(C2CCOCC2)c(=O)n4C)cn1 [AZD0156]; details: max 3 µM
Procedure, shortened: as §1

Olaparib = compound: O=C(c1cc(Cc2n[nH]c(=O)c3ccccc23)ccc1F)N1CCN(C(=O)C2CC2)CC1 [Olaparib]; details: max 10 µM
Procedure, shortened: as §1

Savolitinib = compound: C[C@@H](c1ccc2nccn2c1)n1nnc2ncc(-c3cnn(C)c3)nc21 [Savolitinib]; details: max 1 µM
Procedure, shortened: as §1

Palbociclib = compound: CC(=O)c1c(C)c2cnc(Nc3ccc(N4CCNCC4)cn3)nc2n(C2CCCC2)c1=O [Palbociclib]; details: max 10 µM
Procedure, shortened: as §1

AZD1775 = compound: C=CCn1c(=O)c2cnc(Nc3ccc(N4CCN(C)CC4)cc3)nc2n1-c1cccc(C(C)(C)O)n1 [AZD1775]; details: max 3 µM
Procedure, shortened: as §1

AZD2811 = compound: CCN(CCO)CCCOc1ccc2c(Nc3cc(CC(=O)Nc4cccc(F)c4)[nH]n3)ncnc2c1 [AZD2811]; details: max 1 µM
Procedure, shortened: as §1

Selumetinib = compound: Cn1cnc2c(F)c(Nc3ccc(Br)cc3Cl)c(C(=O)NOCCO)cc21 [Selumetinib]; details: max 10 µM
Procedure, shortened: as §1

Carboplatin = compound: C1CC(C1)(C(=O)[O-])C(=O)[O-].N.N.[Pt+2] [Carboplatin]; details: max 10 µM
Procedure, shortened: as §1

Dasatinib = compound: CC1=C(C(=CC=C1)Cl)NC(=O)C2=CN=C(S2)NC3=CC(=NC(=N3)C)N4CCN(CC4)CCO [Dasatinib]; details: max 2 µM
Procedure, shortened: as §1

AZD4320 = compound: CN(CC[C@H](CSC1=CC=CC=C1)NC2=C(C=C(C=C2)S(=O)(=O)NC(=O)C3=CC=C(C=C3)N4CCC(CC4)[C@H](C5=CC=CC=C5C6=CC=C(C=C6)Cl)O)S(=O)(=O)C(F)(F)F)CCO [AZD4320]; details: max 1 µM
Procedure, shortened: as §1

Prexasertib = compound: COc1cccc(OCCCN)c1-c1cc(Nc2cnc(C#N)cn2)n[nH]1 [Prexasertib]; details: max 1 µM
Procedure, shortened: as §1

SN-38 = compound: CCc1c2c(nc3ccc(O)cc13)-c1cc3c(c(=O)n1C2)COC(=O)[C@]3(O)CC [SN-38]; details: max 0.3 µM
Procedure, shortened: as §1

Gefitinib = compound: COc1cc2ncnc(Nc3ccc(F)c(Cl)c3)c2cc1OCCCN1CCOCC1 [Gefitinib]; details: max 10 µM
Procedure, shortened: as §1

Etoposide = compound: COc1cc([C@@H]2c3cc4c(cc3[C@@H](O[C@@H]3O[C@@H]5CO[C@@H](C)O[C@H]5[C@H](O)[C@H]3O)[C@H]3COC(=O)[C@H]23)OCO4)cc(OC)c1O [Etoposide]; details: max 10 µM
Procedure, shortened: as §1

Doxorubicin = compound: COc1cccc2c1C(=O)c1c(O)c3c(c(O)c1C2=O)C[C@@](O)(C(=O)CO)C[C@@H]3O[C@H]1C[C@H](N)[C@H](O)[C@H](C)O1 [Doxorubicin]; details: max 1 µM
Procedure, shortened: as §1

Venetoclax = compound: CC1(C)CCC(CN2CCN(c3ccc(C(=O)NS(=O)(=O)c4ccc(NCC5CCOCC5)c([N+](=O)[O-])c4)c(Oc4cnc5[nH]ccc5c4)c3)CC2)=C(c2ccc(Cl)cc2)C1 [Venetoclax]; details: max 1 µM
Procedure, shortened: as §1

AZD5153 = compound: COc1nnc2ccc(N3CCC(c4ccc(OCCN5CCN(C)C(=O)[C@H]5C)cc4)CC3)nn12 [AZD5153]; details: max 1 µM
Procedure, shortened: as §1

SRA737 = compound: N#Cc1cnc(Nc2cc(NC[C@H]3CNCCO3)c(C(F)(F)F)cn2)cn1 [SRA737]; details: max 10 µM
Procedure, shortened: as §1

Gemcitabine = compound: Nc1ccn([C@@H]2O[C@H](CO)[C@@H](O)C2(F)F)c(=O)n1 [Gemcitabine]; details: max 0.3 µM
Procedure, shortened: as §1

AZD1390 = compound: CC(C)n1c(=O)n(C)c2cnc3cc(F)c(-c4ccc(OCCCN5CCCCC5)nc4)cc3c21 [AZD1390]; details: max 0.3 µM
Procedure, shortened: as §1

AZD8186 = compound: C[C@@H](Nc1cc(F)cc(F)c1)c1cc(C(=O)N(C)C)cc2c(=O)cc(N3CCOCC3)oc12 [AZD8186]; details: max 10 µM
Procedure, shortened: as §1

Alisertib = compound: COc1cc(Nc2ncc3c(n2)-c2ccc(Cl)cc2C(c2c(F)cccc2OC)=NC3)ccc1C(=O)O [Alisertib]; details: max 10 µM
Procedure, shortened: as §1

Paclitaxel = compound: CC(=O)O[C@H]1C(=O)[C@@]2(C)[C@H]([C@H](OC(=O)c3ccccc3)[C@]3(O)C[C@H](OC(=O)[C@H](O)[C@@H](NC(=O)c4ccccc4)c4ccccc4)C(C)=C1C3(C)C)[C@]1(OC(C)=O)CO[C@@H]1C[C@@H]2O [Paclitaxel]; details: max 3 µM
Procedure, shortened: as §1

Cell Line	IC50, cell viability 72 h (Trametinib) [nM]	IC50, cell viability 72 h (MK-2206) [nM]	IC50, cell viability 72 h (AZD7648) [nM]	IC50, cell viability 72 h [1] [nM]	IC50, cell viability 72 h (AZD5363) [nM]	IC50, cell viability 72 h (AZD6738) [nM]	IC50, cell viability 72 h (Crizotinib) [nM]	IC50, cell viability 72 h (AZD5991) [nM]	IC50, cell viability 72 h (Taselisib) [nM]	IC50, cell viability 72 h (Lapatinib) [nM]	IC50, cell viability 72 h (SG3199) [nM]	IC50, cell viability 72 h (5-Fluorouracil) [nM]	IC50, cell viability 72 h (AZD0156) [nM]	IC50, cell viability 72 h (Olaparib) [nM]	IC50, cell viability 72 h (Savolitinib) [nM]	IC50, cell viability 72 h (Palbociclib) [nM]	IC50, cell viability 72 h (AZD1775) [nM]	IC50, cell viability 72 h (AZD2811) [nM]	IC50, cell viability 72 h (Selumetinib) [nM]	IC50, cell viability 72 h (Carboplatin) [nM]	IC50, cell viability 72 h (Dasatinib) [nM]	IC50, cell viability 72 h (AZD4320) [nM]	IC50, cell viability 72 h (Prexasertib) [nM]	IC50, cell viability 72 h (SN-38) [nM]	IC50, cell viability 72 h (Gefitinib) [nM]	IC50, cell viability 72 h (Etoposide) [nM]	IC50, cell viability 72 h (Doxorubicin) [nM]	IC50, cell viability 72 h (Venetoclax) [nM]	IC50, cell viability 72 h (AZD5153) [nM]	IC50, cell viability 72 h (SRA737) [nM]	IC50, cell viability 72 h (Gemcitabine) [nM]	IC50, cell viability 72 h (AZD1390) [nM]	IC50, cell viability 72 h (AZD8186) [nM]	IC50, cell viability 72 h (Alisertib) [nM]	IC50, cell viability 72 h (Paclitaxel) [nM]
SCC-4 (Oral Cavity Carcinoma)	> 1000	> 10000	> 10000	> 5000	> 10000	9010	> 10000	> 1000	1940	> 10000	> 1	> 20000	> 3000	> 10000	> 1000	> 10000	> 3000	> 1000	> 10000	> 10000	> 2000	> 1000	154	53	> 10000	> 10000	> 1000	> 1000	> 1000	> 10000	272	> 300	> 10000	9220	11.5
NCI-H226 (Mesothelioma)	> 1000	> 10000	> 10000	> 5000	> 10000	> 10000	> 10000	> 1000	> 10000	> 10000	> 1	> 20000	> 3000	> 10000	> 1000	> 10000	> 3000	> 1000	> 10000	> 10000	> 2000	> 1000	> 1000	> 300	> 10000	> 10000	> 1000	> 1000	> 1000	> 10000	> 300	> 300	> 10000	> 10000	> 3000
SKG-IIIa (Cervical Carcinoma)	> 1000	> 10000	> 10000	> 5000	> 10000	> 10000	> 10000	> 1000	> 10000	> 10000	> 1	> 20000	> 3000	> 10000	> 1000	> 10000	> 3000	> 1000	> 10000	> 10000	> 2000	> 1000	> 1000	> 300	> 10000	> 10000	> 1000	> 1000	> 1000	> 10000	> 300	> 300	> 10000	> 10000	854
ES6 (Ewing's Sarcoma)	> 1000	> 10000	> 10000	> 5000	> 10000	> 10000	> 10000	> 1000	3630	> 10000	> 1	> 20000	> 3000	> 10000	> 1000	> 10000	> 3000	> 1000	> 10000	> 10000	> 2000	> 1000	481	> 300	> 10000	> 10000	> 1000	> 1000	> 1000	> 10000	268	> 300	> 10000	> 10000	> 3000
BxPC-3 (Pancreatic Carcinoma)	487	> 10000	> 10000	4090	> 10000	> 10000	> 10000	> 1000	> 10000	> 10000	> 1	> 20000	> 3000	> 10000	> 1000	> 10000	1710	> 1000	> 10000	> 10000	1850	> 1000	68.4	> 300	> 10000	> 10000	> 1000	> 1000	> 1000	> 10000	> 300	> 300	> 10000	> 10000	602
